# Data: article PMC3913620, “Preclinical Evaluation of the Novel, Orally Bioavailable Selective Inhibitor of Nuclear Export (SINE) KPT-335 in Spontaneous Canine Cancer: Results of a Phase I Study” (PLoS ONE, 2014)
# Columns and labels:
# [1] = Oral bioavailability; assay type: in vivo; settings: normal laboratory dogs
# [2] = Phase I dose escalation study, toxicity assessment; settings: dog, in vivo, po; orally twice/week (Monday/Thursday), dogs with spontaneous cancer; read-out: maximum tolerated dose (MTD)
# Method: This study was a Phase I dose escalating, open label assessment of the safety and biologic activity of KPT-335 in client owned dogs with spontaneous malignancies. Assessment of clinical toxicities and tumor response was performed at each visit. Dogs were evaluated for hematologic and biochemical toxicities every 7 days with routine bloodwork. The initial dose of 1 mg/kg orally twice per week (Monday/Thursday or Tuesday/Friday) was based on previous data from normal laboratory dogs (data not shown) and dose escalation was set at 0.25 mg/kg increments in cohorts of 3 until dose limiting toxicity (DLT) was identified. The DLT was considered to be any grade 3 or 4 hematologic or non-hematologic toxicity based on the established VCOG-CTCAE criteria. […] Disease progression or signs and symptoms definitely related to disease were not considered adverse events (AEs). The maximum tolerated dose (MTD) was considered to be one dose below that at which DLT occurred.
# Each patient underwent a baseline complete history, physical examination, and pre-dose laboratory assessment that included a complete blood count (CBC), serum biochemistry profile, coagulation parameters (PT/PTT) and urinalysis. Patients were assessed for adverse events on days 7, 14, 21, and 28, and every 2 weeks thereafter at which time all laboratory assessments were repeated. […]
# [3] = tested on: canine melanoma cell lines; experiment: Proliferation and viability of canine melanoma cell lines (data not shown); assay type: cell-based; settings: Canis lupus familiaris, read-out: IC50 concentrations, canine melanoma cell lines
# [4] = tested on: OCI-Ly10 DLBCL cells; experiment: MTS cell viability assay, OCI-Ly10; assay type: cell-based, human; settings: Homo sapiens, OCI-Ly10, 72 hours, read-out: IC50 (± S.D.), OCI-Ly10
# Method: (§1) Cryopreserved tumor cells obtained from sterile lymph node biopsy samples from dogs with diffuse large B cell lymphoma (DLBCL) were cultured with 100 ng/mL of megaCD40L (Enzo Life Science, Plymouth Meeting, PA) as previously described, [27]. The human T-cell leukemia cell line, Jurkat, was from the American Type Culture Collection (ATCC, Manassas, VA) and cultured in RPMI1640 medium (Gibco/BRL, Grand Island, NY) containing 10% fetal bovine serum (FBS; Atlas Biologicals, Fort Collins, CO), 2-mercaptoethanol (Gibco/BRL), HEPES, L-glutamine, sodium pyruvate (Mediatech Inc., Manassas, VA), non-essential amino acids (Sigma Aldrich, St. Louis, MO), and Primocin (Invivogen, San Diego, CA). […]
# (§2) Cell viability for lymphoid lines was determined by the MTS (3-(4, 5-dimethylthiazol-2-yl)-5-(3-carboxymethoxyphenyl)-2-(4-sulfophenyl)-2H-tetrazolium) assay using CellTiter 96® AQueous One Solution Cell Proliferation Assay Kit (Promega, Madison, WI). […] After 72 hours, 20 µL of MTS solution was added to each well and cells were incubated for another 4 hours before measuring absorbance at 490 nm using a Wallac Victor 1420 Multilabel Counter (Perkin Elmer, Waltham, MA). The IC50 of SINE was calculated using Prism 6 software (GraphPad Software, Inc., La Jolla, CA).
# [5] = dog, in vivo
# [6] = tested on: primary canine DLBCL cells; experiment: Annexin V apoptosis assay (flow cytometry), primary canine DLBCL; assay type: cell-based; settings: primary canine DLBCL (sample #1), 100 nM, 24 hours
# Method: Jurkat cells and primary canine DLBCL cells were cultured for 24 hours in the presence of 100 nM KPT-335 or dimethyl sulfoxide (DMSO). Cells were stained with Annexin V (eBiosciences, San Diego, CA) according to the manufacturer’s instruction. Flow cytometry was performed using a BD LSRII flow cytometer (BD Immunocytometry Systems, San Jose, CA) and results were analyzed using FlowJo software (Tree Star, Ashland, OR).
# [7] = tested on: CLBL1 cells; experiment: Annexin V apoptosis assay (flow cytometry), CLBL1; assay type: cell-based, canine; settings: CLBL1, 100 nM, 24 hours
# [8] = tested on: Jurkat cells; experiment: MTS cell viability assay, Jurkat; assay type: cell-based, human; settings: Homo sapiens, Jurkat, 72 hours, read-out: IC50 (± S.D.), Jurkat
# Method: Cryopreserved tumor cells obtained from sterile lymph node biopsy samples from dogs with diffuse large B cell lymphoma (DLBCL) were cultured with 100 ng/mL of megaCD40L (Enzo Life Science, Plymouth Meeting, PA) as previously described, [27]. The human T-cell leukemia cell line, Jurkat, was from the American Type Culture Collection (ATCC, Manassas, VA) and cultured in RPMI1640 medium (Gibco/BRL, Grand Island, NY) containing 10% fetal bovine serum (FBS; Atlas Biologicals, Fort Collins, CO), 2-mercaptoethanol (Gibco/BRL), HEPES, L-glutamine, sodium pyruvate (Mediatech Inc., Manassas, VA), non-essential amino acids (Sigma Aldrich, St. Louis, MO), and Primocin (Invivogen, San Diego, CA). The canine DLBCL cell line CLBL1 obtained from Dr. Barbara Rütgen (University of Vienna, Austria), [29] and human DLBCL cell lines OCI-Ly3 [30], [31] and OCI-Ly10 [32] obtained from Dr. Anne Novak (Mayo Clinic Cancer Center, Rochester, MN) were cultured in complete Iscove’s Modified Dulbecco’s medium (IMDM) containing 20% FBS, L-glutamine, and Primocin. All cells were maintained at 37°C in a humidified 5% CO2 atmosphere. The following additional canine tumor cell lines were used to evaluate response to SINE compounds: C2, mast cell tumor line provided by Dr. George Caughey, UCSF, San Francisco, CA [33]; OSA16, osteosarcoma cell line, provided by Dr. Jaime Modiano, UM, Minneapolis, MN [34]; and 323610-3, malignant melanoma cell line, provided by Dr. Michael Kent, UCD, Davis, CA [35]. […]
# as §2
# [9] = tested on: OCI-Ly3 DLBCL cells; experiment: MTS cell viability assay, OCI-Ly3; assay type: cell-based, human; settings: Homo sapiens, OCI-Ly3, 72 hours, read-out: IC50 (± S.D.), OCI-Ly3
# Method: as §1, §2
structure (smiles),measurement,setting,value
O=C(/C=C\n1cnc(-c2cc(C(F)(F)F)cc(C(F)(F)F)c2)n1)NNc1ccccn1 [KPT-335],oral bioavailability,[1],excellent oral bioavailability
same,MTD,[2],1.75 mg/kg
same,IC50,[3],95 to 290 nM
same,IC50,[4],41.8 ± 21 nM
same,tolerable doses,[5],below 3 mg/kg
same,apoptotic cells (Annexin V+ cells) compared to mock treated cells,[6],increased apoptotic cells
same,apoptotic cells (Annexin V+ cells) compared to mock treated cells,[7],increased apoptotic cells
same,IC50,[8],0.3 nM
same,IC50,[9],2.1 ± 1.3 nM
